# Data published in PubChem BioAssay (NCI).
#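 Here, GI50 denotes the concentration required for 50% inhibition of growth. The concentration for full growth arrest is given as TGI.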
# Columns and labels:
# Assay in all cases: growth of human tumour cells (NCI), 384-well format
# LOX IMVI melanoma = system: LOX IMVI melanoma
# SW-620 colon = system: SW-620 colon
# UO-31 renal = system: UO-31 renal
# EKVX NSCLC = system: EKVX NSCLC
# SN12C renal = system: SN12C renal
# UACC-62 melanoma = system: UACC-62 melanoma
# MDA-MB-435 melanoma = system: MDA-MB-435 melanoma
# SF-268 CNS = system: SF-268 CNS
# OVCAR-4 ovarian = system: OVCAR-4 ovarian
# RPMI-8226 leukemia = system: RPMI-8226 leukemia
# UACC-257 melanoma = system: UACC-257 melanoma
# SNB-19 CNS = system: SNB-19 CNS
# SNB-75 CNS = system: SNB-75 CNS
# MALME-3M melanoma = system: MALME-3M melanoma
# A498 renal = system: A498 renal
# HOP-62 NSCLC = system: HOP-62 NSCLC
# SK-MEL-5 melanoma = system: SK-MEL-5 melanoma
# COLO 205 colon = system: COLO 205 colon
# BT-549 breast = system: BT-549 breast
# SK-OV-3 ovarian = system: SK-OV-3 ovarian
# TK-10 renal = system: TK-10 renal
# HL-60(TB) leukemia = system: HL-60(TB) leukemia
# MOLT-4 leukemia = system: MOLT-4 leukemia
# NCI-H460 NSCLC = system: NCI-H460 NSCLC
# 786-0 renal = system: 786-0 renal
# HCT-15 colon = system: HCT-15 colon
# NCI/ADR-RES ovarian = system: NCI/ADR-RES ovarian
# HCC-2998 colon = system: HCC-2998 colon
# MCF7 breast = system: MCF7 breast
# DU-145 prostate = system: DU-145 prostate
# M14 melanoma = system: M14 melanoma
# NCI-H322M lung = system: NCI-H322M lung
# SK-MEL-28 melanoma = system: SK-MEL-28 melanoma
# OVCAR-3 ovarian = system: OVCAR-3 ovarian
# U251 glioblastoma = system: U251 glioblastoma
# CCRF-CEM leukemia = system: CCRF-CEM leukemia
# SF-539 CNS = system: SF-539 CNS
# K-562 leukemia = system: K-562 leukemia
# HS 578T breast = system: HS 578T breast
# A549 NSCLC = system: A549 NSCLC
# RXF 393 renal = system: RXF 393 renal
# NCI-H23 lung = system: NCI-H23 lung
# IGROV1 ovarian = system: IGROV1 ovarian
# MDA-MB-231 breast = system: MDA-MB-231 breast
# NCI-H522 lung = system: NCI-H522 lung
# OVCAR-8 ovarian = system: OVCAR-8 ovarian
# MDA-MB-468 breast = system: MDA-MB-468 breast
# OVCAR-5 ovarian = system: OVCAR-5 ovarian
# KM12 colon = system: KM12 colon
structure (smiles),measurement,setting,value
CN1CCN(Cc2ccc(Nc3ncc(Cl)c(Nc4ccccc4S(=O)(=O)N(C)C)n3)cc2)CC1,GI50,LOX IMVI melanoma,20.5 nM
same,TGI,LOX IMVI melanoma,201 nM
same,GI50,SW-620 colon,44.8 nM
same,TGI,SW-620 colon,306 nM
same,GI50,UO-31 renal,144 nM
same,TGI,UO-31 renal,448 nM
same,GI50,EKVX NSCLC,192 nM
same,TGI,EKVX NSCLC,478 nM
same,GI50,SN12C renal,140 nM
same,TGI,SN12C renal,358 nM
same,GI50,UACC-62 melanoma,< 10 nM
same,TGI,UACC-62 melanoma,123 nM
same,GI50,MDA-MB-435 melanoma,149 nM
same,TGI,MDA-MB-435 melanoma,441 nM
same,GI50,SF-268 CNS,18.3 nM
same,TGI,SF-268 CNS,78.8 nM
same,GI50,OVCAR-4 ovarian,299 nM
same,TGI,OVCAR-4 ovarian,888 nM
same,GI50,RPMI-8226 leukemia,< 10 nM
same,TGI,RPMI-8226 leukemia,32.6 nM
same,GI50,UACC-257 melanoma,111 nM
same,TGI,UACC-257 melanoma,253 nM
same,GI50,SNB-19 CNS,224 nM
same,TGI,SNB-19 CNS,> 100000 nM
same,GI50,SNB-75 CNS,200 nM
same,TGI,SNB-75 CNS,363 nM
same,GI50,MALME-3M melanoma,116 nM
same,TGI,MALME-3M melanoma,252 nM
same,GI50,A498 renal,136 nM
same,TGI,A498 renal,671 nM
same,GI50,HOP-62 NSCLC,20.8 nM
same,TGI,HOP-62 NSCLC,73.6 nM
same,GI50,SK-MEL-5 melanoma,29.2 nM
same,TGI,SK-MEL-5 melanoma,186 nM
same,GI50,COLO 205 colon,16.9 nM
same,TGI,COLO 205 colon,128 nM
same,GI50,BT-549 breast,117 nM
same,TGI,BT-549 breast,257 nM
same,GI50,SK-OV-3 ovarian,280 nM
same,TGI,SK-OV-3 ovarian,> 100000 nM
same,GI50,TK-10 renal,393 nM
same,TGI,TK-10 renal,2880 nM
same,GI50,HL-60(TB) leukemia,< 10 nM
same,TGI,HL-60(TB) leukemia,17.3 nM
same,GI50,MOLT-4 leukemia,< 10 nM
same,GI50,NCI-H460 NSCLC,< 10 nM
same,TGI,NCI-H460 NSCLC,10.9 nM
same,GI50,786-0 renal,109 nM
same,TGI,786-0 renal,1140 nM
same,GI50,HCT-15 colon,72.5 nM
same,TGI,HCT-15 colon,371 nM
same,GI50,NCI/ADR-RES ovarian,191 nM
same,TGI,NCI/ADR-RES ovarian,481 nM
same,GI50,HCC-2998 colon,32 nM
same,TGI,HCC-2998 colon,251 nM
same,GI50,MCF7 breast,< 10 nM
same,TGI,MCF7 breast,1310 nM
same,GI50,DU-145 prostate,45.2 nM
same,TGI,DU-145 prostate,15500 nM
same,GI50,M14 melanoma,98 nM
same,TGI,M14 melanoma,235 nM
same,GI50,NCI-H322M lung,129 nM
same,TGI,NCI-H322M lung,351 nM
same,GI50,SK-MEL-28 melanoma,133 nM
same,TGI,SK-MEL-28 melanoma,274 nM
same,GI50,OVCAR-3 ovarian,52.7 nM
same,TGI,OVCAR-3 ovarian,243 nM
same,GI50,U251 glioblastoma,146 nM
same,TGI,U251 glioblastoma,920 nM
same,GI50,CCRF-CEM leukemia,< 10 nM
same,TGI,CCRF-CEM leukemia,15.3 nM
same,GI50,SF-539 CNS,18.1 nM
same,TGI,SF-539 CNS,139 nM
same,GI50,K-562 leukemia,16.5 nM
same,TGI,K-562 leukemia,233 nM
same,GI50,HS 578T breast,181 nM
same,TGI,HS 578T breast,356 nM
same,GI50,A549 NSCLC,< 10 nM
same,TGI,A549 NSCLC,750 nM
same,GI50,RXF 393 renal,162 nM
same,TGI,RXF 393 renal,307 nM
same,GI50,NCI-H23 lung,98.2 nM
same,TGI,NCI-H23 lung,234 nM
same,GI50,IGROV1 ovarian,62.6 nM
same,TGI,IGROV1 ovarian,21200 nM
same,GI50,MDA-MB-231 breast,167 nM
same,TGI,MDA-MB-231 breast,1130 nM
same,GI50,NCI-H522 lung,< 10 nM
same,TGI,NCI-H522 lung,170 nM
same,GI50,OVCAR-8 ovarian,134 nM
same,TGI,OVCAR-8 ovarian,420 nM
same,GI50,MDA-MB-468 breast,41.9 nM
same,TGI,MDA-MB-468 breast,151 nM
same,GI50,OVCAR-5 ovarian,128 nM
same,TGI,OVCAR-5 ovarian,605 nM
same,GI50,KM12 colon,16.5 nM
same,TGI,KM12 colon,298 nM
